# Measured values as given in patent publication US20160045442A1, “STABLE PHARMACEUTICAL COMPOSITIONS OF MESALAMINE” (CADILA HEALTHCARE LIMITED, priority 2014, published 2016).
# Experiment: Bulk density and tapped density of mesalamine powder (USP Test 616)
# Assay type: physicochemical
# Conditions: mesalamine used to prepare the composition as per Example 3
# Text: Important physicochemical characteristics of powders are the density properties such as bulk and tapped density, weight variation and flow properties such as angle of repose. Bulk density is the undisturbed packing density of that substance and tapped density relates to the packing density after tapping a bed of substance until no change in the packing density is seen. Bulk density and tapped density, can be determined using compendial bulk density apparatus, such as the method given in Test 616 “Bulk Density and Tapped Density,” United States Pharmacopeia 29, United States Pharmacopeial Convention, Inc., Rockville, Md., 2005 (“USP”).
structure (smiles),measurement,value
"Nc1ccc(O)c(C(=O)O)c1 [Mesalamine, mesalamine]",bulk density,0.483 g/mL
same,tapped density,0.694 g/mL
